We go through 19 compounds from US11780826B2 (Amgen Inc., priority 2017, dated 2023).

The structures appear in SMILES notation.

The test system of this experiment is Bovine cardiac myofibrils. The experiment is described as follows: In vitro model of dose-dependent myofibril ATPase modulation (AC1.4, pyruvate kinase/lactate dehydrogenase-coupled ATPase assay at pCa25). It is filed as biochemical. The note with it: concentration at which ATPase activity was 1.4-fold higher than the bottom of the dose curve, mean of a minimum of two independent tests. The gist of the method: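 Coupled-enzyme ATPase on bovine heart myofibrils, 1 mM ATP, EGTA/CaCl2 buffered; 340 nm readout.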
`CS(=O)(=O)c1cccc(C(=O)N2CC3(CCC3)C2C(=O)N[C@@H](c2ccc(C(F)(F)F)cc2F)C2CC2)c1` (stereo partly drawn) [Example 609, N-((R)-cyclopropyl(2-fluoro-4-(trifluoromethyl)phenyl)methyl)-2-(3-(methylsulfonyl)benzoyl)-2-azaspiro[3.3]heptane-1-carboxamide] displayed an AC1.4 of 3.7443 µM.

Take `CS(=O)(=O)c1cccc(C(=O)N2[C@@H](C(=O)N[C@@H](c3ccc(C(F)(F)F)c(F)c3)C3CC3)C[C@H]3C[C@H]32)c1` [Example 307, (1R,3R,5R)-N-((R)-cyclopropyl(3-fluoro-4-(trifluoromethyl)phenyl)methyl)-2-(3-(methylsulfonyl)benzoyl)-2-azabicyclo[3.1.0]hexane-3-carboxamide]: the AC1.4 came to 0.8008 µM. The value for `O=C(N[C@@H](c1ccc(C(F)(F)F)cc1F)C1COC1)[C@H]1C[C@H]2C[C@H]2N1C(=O)c1cc(C(F)(F)F)ccn1` [Example 409, (1R,3R,5R)-N-((R)-(2-fluoro-4-(trifluoromethyl)phenyl)(3-oxetanyl)methyl)-2-((4-(trifluoromethyl)-2-pyridinyl)carbonyl)-2-azabicyclo[3.1.0]hexane-3-carboxamide] was 1.484 µM; that for `CS(=O)(=O)c1cc(F)cc(C(=O)N2[C@@H](C(=O)N[C@@H](c3cc(F)c(Cl)cc3F)C3COC3)C[C@H]3C[C@H]32)c1` [Example 83, (1R,3R,5R)-N-((R)-(4-chloro-2,5-difluorophenyl)(3-oxetanyl)methyl)-2-(3-fluoro-5-(methylsulfonyl)benzoyl)-2-azabicyclo[3.1.0]hexane-3-carboxamide] was 0.1146 µM. The value for `CC[C@@H](NC(=O)[C@H]1CCCN1C(=O)[C@H]1CCCN(S(=O)(=O)N2CC(C#N)C2)C1)c1ccc(C(F)(F)F)cc1` [Example 17, 1-(((3S)-1-((3-cyano-1-azetidinyl)sulfonyl)-3-piperidinyl)carbonyl)-N-((1R)-1-(4-(trifluoromethyl)phenyl)propyl)-D-prolinamide] was 0.02445 µM; that for `N#CC1CN(S(=O)(=O)N2CCC[C@H](C(=O)N3[C@@H](C(=O)NCc4ccc(C(F)(F)F)nc4)C[C@H]4C[C@H]43)C2)C1` [Example 326] was 0.8885 µM. The value for `C[C@@H](NC(=O)[C@H]1C[C@H](F)CN1C(=O)[C@H]1CCCN(S(=O)(=O)N2CC(C#N)C2)C1)c1cccc(C(F)(F)F)c1` [Example 494, (2R,4S)-1-((S)-1-((3-cyanoazetidin-1-yl)sulfonyl)piperidine-3-carbonyl)-4-fluoro-N-((R)-1-(3-(trifluoromethyl)phenyl)ethyl)pyrrolidine-2-carboxamide] was 2.274 µM; that for `N#CC1CN(S(=O)(=O)N2CCC[C@H](C(=O)N3CCC[C@@H]3C(=O)NC3CCC3C(F)(F)F)C2)C1` (stereo partly drawn) [Example 799, (2R)-1-((S)-1-((3-cyanoazetidin-1-yl)sulfonyl)piperidine-3-carbonyl)-N-(2-(trifluoromethyl)cyclobutyl)pyrrolidine-2-carboxamide] was 9.4535 µM. On to `N#CC1CN(S(=O)(=O)c2cccc(C(=O)N3CCC[C@@H]3C(=O)NCc3ncc(C(F)(F)F)cn3)c2)C1` [Example 725, 1-((3-((3-cyano-1-azetidinyl)sulfonyl)phenyl)carbonyl)-N-((5-(trifluoromethyl)-2-pyrimidinyl)methyl)-D-prolinamide], for which the AC1.4 was found to be 6.507 µM. The value for `N#CC1CN(S(=O)(=O)N2CCC[C@H](C(=O)N3CCC[C@@H]3C(=O)NCC3CCC(C(F)(F)F)CC3)C2)C1` (stereo partly drawn) [Example 590, 1-(((3S)-1-((3-cyano-1-azetidinyl)sulfonyl)-3-piperidinyl)carbonyl)-N-((cis-4-(trifluoromethyl)cyclohexyl)methyl)-D-prolinamide,1-(((3S)-1-((3-cyano-1-azetidinyl)sulfonyl)-3-piperidinyl)carbonyl)-N-((4-(trifluoromethyl)cyclohexyl)methyl)-D-prolinamide] was 3.4675 µM.

In turn, `CS(=O)(=O)c1cccc(C(=O)N2[C@@H](C(=O)N[C@@H](c3cc(F)c(Cl)cc3F)C3COC3)C[C@H]3C[C@H]32)c1` [Example 74, (1R,3R,5R)-N-((R)-(4-chloro-2,5-difluorophenyl)(3-oxetanyl)methyl)-2-(3-(methylsulfonyl)benzoyl)-2-azabicyclo[3.1.0]hexane-3-carboxamide] had an AC1.4 of 0.09935 µM. The value for `C[C@H]1[C@@H](C(=O)N2CCC[C@@H]2C(=O)NCc2ccc(C(F)(F)F)cc2)CCCN1S(=O)(=O)N1CC(C#N)C1` [Example 271, 1-(((2S,3S)-1-((3-cyano-1-azetidinyl)sulfonyl)-2-methyl-3-piperidinyl)carbonyl)-N-(4-(trifluoromethyl)benzyl)-D-prolinamide] was 0.6874 µM.

Compound `N#CC1CN(S(=O)(=O)N2CCC[C@H](C(=O)N3C[C@@H]4C[C@@H]4[C@@H]3C(=O)NCc3ccc(C(F)(F)F)cc3)C2)C1` [Example 177, (1S,2R,5R)-3-(((3S)-1-((3-cyano-1-azetidinyl)sulfonyl)-3-piperidinyl)carbonyl)-N-(4-(trifluoromethyl)benzyl)-3-azabicyclo[3.1.0]hexane-2-carboxamide] gave an AC1.4 of 0.3113 µM. The value for `N#CC1CN(S(=O)(=O)N2CCC[C@H](C(=O)N3CCC[C@@H]3C(=O)NCc3cc(Cl)cc(C(F)(F)F)c3)C2)C1` [Example 532, N-(3-chloro-5-(trifluoromethyl)benzyl)-1-(((3S)-1-((3-cyano-1-azetidinyl)sulfonyl)-3-piperidinyl)carbonyl)-D-prolinamide] was 2.6285 µM. The value for `N#CC1CN(S(=O)(=O)c2cccc(C(=O)N3CCc4ccccc4C3C(=O)NCc3ccc(C(F)(F)F)cc3)c2)C1` (stereo not shown) [Example 324, 2-(3-((3-cyanoazetidin-1-yl)sulfonyl)benzoyl)-N-(4-(trifluoromethyl)benzyl)-1,2,3,4-tetrahydroisoquinoline-1-carboxamide] was 0.8782 µM.

`Cc1ccc(Cl)cc1CNC(=O)[C@H]1CCCN1C(=O)[C@H]1CCCN(S(=O)(=O)N2CC(C#N)C2)C1` [Example 618, N-(5-chloro-2-methylbenzyl)-1-(((3S)-1-((3-cyano-1-azetidinyl)sulfonyl)-3-piperidinyl)carbonyl)-D-prolinamide] returned an AC1.4 of 3.9205 µM. The value for `C[C@@H](NC(=O)[C@H]1CCCN1C(=O)[C@@H]1CN(S(=O)(=O)N2CC(C#N)C2)CCO1)c1ccc(C(F)(F)F)cc1F` [Example 73, 1-(((2S)-4-((3-cyano-1-azetidinyl)sulfonyl)-2-morpholinyl)carbonyl)-N-((1R)-1-(2-fluoro-4-(trifluoromethyl)phenyl)ethyl)-D-prolinamide] was 0.09745 µM. The value for `O=C(N[C@@H](c1cc(F)c(Cl)cc1F)C1COC1)[C@H]1C[C@H]2C[C@H]2N1C(=O)c1ccnc(C(F)(F)F)n1` [Example 500, (1R,3R,5R)-N-((R)-(4-chloro-2,5-difluorophenyl)(3-oxetanyl)methyl)-2-((2-(trifluoromethyl)-4-pyrimidinyl)carbonyl)-2-azabicyclo[3.1.0]hexane-3-carboxamide] was 2.346 µM; that for `N#CC1CN(S(=O)(=O)N2CCC[C@H](C(=O)N3CCC[C@@H]3C(=O)NCc3c(F)c(F)cc(F)c3F)C2)C1` [Example 623, 1-(((3S)-1-((3-cyano-1-azetidinyl)sulfonyl)-3-piperidinyl)carbonyl)-N-(2,3,5,6-tetrafluorobenzyl)-D-prolinamide] was 3.975 µM.
